Data taken from article PMC5218480 (PLoS ONE, 2017).

System: MV-4-11 cells
Assay: Gene expression microarray analysis (Affymetrix PrimeView) and GSEA
Format: cell-based, human
Set-up: RFU PODN (11730768_x_at) / Fold change /veh PODN (11730768_x_at) / RFU LINC00158 (11744669_a_at) / Fold change /veh LINC00158 (11744669_a_at) / RFU DUSP10 (11751237_a_at) / Fold change /veh DUSP10 (11751237_a_at) / RFU ID3 (11757404_x_at) / Fold change /veh ID3 (11757404_x_at) / RFU PLEKHG5 (11737974_s_at) / Fold change /veh PLEKHG5 (11737974_s_at) / RFU LRRC4B (11730491_at) / Fold change /veh LRRC4B (11730491_at) / RFU GIMAP4 (11747438_a_at) / Fold change /veh GIMAP4 (11747438_a_at) / RFU KRT8 (11758183_x_at) / Fold change /veh KRT8 (11758183_x_at) / RFU CNN1 (11734310_a_at) / Fold change /veh CNN1 (11734310_a_at) / RFU VPS37D (11726825_at) / Fold change /veh VPS37D (11726825_at) / RFU C10orf10 (11716522_x_at) / Fold change /veh C10orf10 (11716522_x_at) / RFU KIR2DL2 /// KIR2DL4 /// KIR2DL5A /// KIR2DL5B /// KIR2DS1 /// KIR2DS2 /// KIR2DS3 /// KIR2DS4 /// KIR3DL3 /// KIR3DL3 /// KIR3DS1 (11738374_at) / Fold change /veh KIR2DL2 /// KIR2DL4 /// KIR2DL5A /// KIR2DL5B /// KIR2DS1 /// KIR2DS2 /// KIR2DS3 /// KIR2DS4 /// KIR3DL3 /// KIR3DL3 /// KIR3DS1 (11738374_at) / RFU C1QL1 (11718748_at) / Fold change /veh C1QL1 (11718748_at) / RFU TMPRSS4 (11747572_a_at) / Fold change /veh TMPRSS4 (11747572_a_at) / RFU HAMP (11756126_x_at) / Fold change /veh HAMP (11756126_x_at) / RFU RNFT2 (11725882_a_at) / Fold change /veh RNFT2 (11725882_a_at) / RFU NR4A2 (11747474_a_at) / Fold change /veh NR4A2 (11747474_a_at) / RFU ABCC12 (11746883_a_at) / Fold change /veh ABCC12 (11746883_a_at) / RFU TMEM136 (11760407_x_at) / Fold change /veh TMEM136 (11760407_x_at) / RFU CLDN22 /// WWC2 (11732394_at) / Fold change /veh CLDN22 /// WWC2 (11732394_at) / RFU HLA-DPB1 (11760878_x_at) / Fold change /veh HLA-DPB1 (11760878_x_at) / RFU SPINT1 (11716480_a_at) / Fold change /veh SPINT1 (11716480_a_at) / RFU GAP43 (11754022_s_at) / Fold change /veh GAP43 (11754022_s_at) / RFU A4GNT (11735810_at) / Fold change /veh A4GNT (11735810_at) / RFU PRB3 (11715151_x_at) / Fold change /veh PRB3 (11715151_x_at) / RFU TUBB4B (11761932_at) / Fold change /veh TUBB4B (11761932_at) / RFU CAPN14 (11732068_a_at) / Fold change /veh CAPN14 (11732068_a_at) / RFU TMCC2 (11721928_a_at) / Fold change /veh TMCC2 (11721928_a_at) / RFU IRGQ (11745062_a_at) / Fold change /veh IRGQ (11745062_a_at) / RFU FAM174B (11720279_a_at) / Fold change /veh FAM174B (11720279_a_at) / RFU TMPRSS4 (11748680_a_at) / Fold change /veh TMPRSS4 (11748680_a_at) / RFU FAM212B (11763350_a_at) / Fold change /veh FAM212B (11763350_a_at) / RFU PLEKHG5 (11743358_a_at) / Fold change /veh PLEKHG5 (11743358_a_at) / RFU ZSCAN30 (11745921_a_at) / Fold change /veh ZSCAN30 (11745921_a_at) / RFU CMKLR1 (11741424_a_at) / Fold change /veh CMKLR1 (11741424_a_at) / RFU LOC101060620 /// MAPK8IP1 (11723275_at) / Fold change /veh LOC101060620 /// MAPK8IP1 (11723275_at) / RFU SPTSSB (11747773_x_at) / Fold change /veh SPTSSB (11747773_x_at) / RFU PRSS12 (11739890_at) / Fold change /veh PRSS12 (11739890_at) / RFU BIN1 (11741810_x_at) / Fold change /veh BIN1 (11741810_x_at) / RFU WNT11 (11732464_a_at) / Fold change /veh WNT11 (11732464_a_at) / RFU C10orf10 (11716521_a_at) / Fold change /veh C10orf10 (11716521_a_at) / RFU C5orf56 (11738089_at) / Fold change /veh C5orf56 (11738089_at) / RFU CYB561 (11721691_x_at) / Fold change /veh CYB561 (11721691_x_at) / RFU ANKRD19P (11752326_a_at) / Fold change /veh ANKRD19P (11752326_a_at) / RFU OR2T12 /// OR2T33 /// OR2T8 (11738714_s_at) / Fold change /veh OR2T12 /// OR2T33 /// OR2T8 (11738714_s_at) / RFU VCAN (11748164_a_at) / Fold change /veh VCAN (11748164_a_at) / RFU JSRP1 (11732532_at) / Fold change /veh JSRP1 (11732532_at) / RFU KRTAP10-11 (11738290_x_at) / Fold change /veh KRTAP10-11 (11738290_x_at) / RFU MYO3A (11730013_a_at) / Fold change /veh MYO3A (11730013_a_at) / RFU EBF3 (11725865_a_at) / Fold change /veh EBF3 (11725865_a_at) / RFU CAMK2N1 (11719241_x_at) / Fold change /veh CAMK2N1 (11719241_x_at) / RFU C5orf56 (11738088_a_at) / Fold change /veh C5orf56 (11738088_a_at) / RFU OLFML3 (11715873_a_at) / Fold change /veh OLFML3 (11715873_a_at) / RFU LOC100653217 /// NTM (11731650_a_at) / Fold change /veh LOC100653217 /// NTM (11731650_a_at) / RFU MAPK11 (11762145_a_at) / Fold change /veh MAPK11 (11762145_a_at) / RFU FIZ1 (11724087_x_at) / Fold change /veh FIZ1 (11724087_x_at) / RFU OASL (11726364_x_at) / Fold change /veh OASL (11726364_x_at) / RFU SOX15 (11748057_x_at) / Fold change /veh SOX15 (11748057_x_at) / RFU CD79A (11719716_a_at) / Fold change /veh CD79A (11719716_a_at) / RFU HIST1H1D (11736915_at) / Fold change /veh HIST1H1D (11736915_at) / RFU CASKIN2 (11723855_a_at) / Fold change /veh CASKIN2 (11723855_a_at) / RFU LOC730098 (11760151_x_at) / Fold change /veh LOC730098 (11760151_x_at) / RFU OR4N2 (11742367_at) / Fold change /veh OR4N2 (11742367_at) / RFU PRRT2 (11749266_a_at) / Fold change /veh PRRT2 (11749266_a_at) / RFU SNX32 (11753110_a_at) / Fold change /veh SNX32 (11753110_a_at) / RFU CDHR5 (11726645_a_at) / Fold change /veh CDHR5 (11726645_a_at) / RFU RCAN1 (11760418_a_at) / Fold change /veh RCAN1 (11760418_a_at) / RFU FAM167A (11723789_a_at) / Fold change /veh FAM167A (11723789_a_at) / RFU FAM26E (11764081_at) / Fold change /veh FAM26E (11764081_at) / RFU ISYNA1 (11749810_s_at) / Fold change /veh ISYNA1 (11749810_s_at) / RFU ACY1 (11761880_at) / Fold change /veh ACY1 (11761880_at) / RFU 11764098_at / Fold change /veh 11764098_at / RFU SAMD14 (11745864_x_at) / Fold change /veh SAMD14 (11745864_x_at) / RFU NPB (11741838_a_at) / Fold change /veh NPB (11741838_a_at) / RFU TMPRSS6 (11731388_a_at) / Fold change /veh TMPRSS6 (11731388_a_at) / RFU KRTAP10-2 (11738614_at) / Fold change /veh KRTAP10-2 (11738614_at) / RFU ARHGAP8 /// PRR5-ARHGAP8 (11727945_x_at) / Fold change /veh ARHGAP8 /// PRR5-ARHGAP8 (11727945_x_at) / RFU KRTAP5-7 /// NADSYN1 (11734609_at) / Fold change /veh KRTAP5-7 /// NADSYN1 (11734609_at) / RFU RASL12 (11751679_a_at) / Fold change /veh RASL12 (11751679_a_at) / RFU CDKN2B (11736163_a_at) / Fold change /veh CDKN2B (11736163_a_at) / RFU PRF1 (11729649_at) / Fold change /veh PRF1 (11729649_at) / RFU, ZNF638 /// ZNF638-IT1 / Fold change vs veh, ZNF638 /// ZNF638-IT1 / RFU, PANK3 / Fold change vs veh, PANK3 / RFU, SH3YL1 / Fold change vs veh, SH3YL1 / RFU, ZEB2 / Fold change vs veh, ZEB2 / RFU, NRIP1 / Fold change vs veh, NRIP1 / RFU, PTTG1IP / Fold change vs veh, PTTG1IP / RFU, CAPN2 / Fold change vs veh, CAPN2 / RFU, MED14 / Fold change vs veh, MED14 / RFU, SNORA58 / Fold change vs veh, SNORA58 / RFU, C1orf63 / Fold change vs veh, C1orf63 / RFU, LRRFIP1 / Fold change vs veh, LRRFIP1 / RFU, NDUFAF7 / Fold change vs veh, NDUFAF7 / RFU, SLC12A2 / Fold change vs veh, SLC12A2 / RFU, IBTK / Fold change vs veh, IBTK / RFU, ESF1 / Fold change vs veh, ESF1 / Fold change vs veh, TMEM50B / RFU, TAOK1 / Fold change vs veh, TAOK1 / RFU, ACBD3 / Fold change vs veh, ACBD3 / RFU, TMA16 / Fold change vs veh, TMA16 / RFU, RWDD3 / Fold change vs veh, RWDD3 / RFU, BCAT1 / Fold change vs veh, BCAT1 / RFU, EDEM3 / Fold change vs veh, EDEM3 / RFU, TMEM33 / Fold change vs veh, TMEM33 / RFU, WDR75 / Fold change vs veh, WDR75 / RFU, AHCTF1 / Fold change vs veh, AHCTF1 / RFU, TFRC / Fold change vs veh, TFRC / RFU, ZDHHC17 / Fold change vs veh, ZDHHC17 / RFU, NOM1 / Fold change vs veh, NOM1 / RFU, ARL8B / Fold change vs veh, ARL8B / RFU, ZBTB11 / Fold change vs veh, ZBTB11 / RFU, TAMM41 / Fold change vs veh, TAMM41 / RFU, KIAA1704 /// LOC100996395 / Fold change vs veh, KIAA1704 /// LOC100996395 / RFU, ING1 / Fold change vs veh, ING1 / RFU, TRMT61B / Fold change vs veh, TRMT61B / RFU, FUBP3 / Fold change vs veh, FUBP3 / RFU, TP53 / Fold change vs veh, TP53 / RFU, TNKS2 / Fold change vs veh, TNKS2 / RFU, ZFP14 / Fold change vs veh, ZFP14 / RFU, ACTR2 / Fold change vs veh, ACTR2 / RFU, PPP3R1 / Fold change vs veh, PPP3R1 / RFU, PIK3R1 / Fold change vs veh, PIK3R1 / RFU, HNRNPA1 / Fold change vs veh, HNRNPA1 / RFU, RNF170 / Fold change vs veh, RNF170 / RFU, ZNF28 / Fold change vs veh, ZNF28 / RFU, RNGTT / Fold change vs veh, RNGTT / RFU, OGT / Fold change vs veh, OGT / RFU, BRD1 / Fold change vs veh, BRD1 / RFU, MARS / Fold change vs veh, MARS / RFU, ZNF655 / Fold change vs veh, ZNF655 / RFU, FAHD1 / Fold change vs veh, FAHD1 / RFU, BDP1 / Fold change vs veh, BDP1 / RFU, LRRCC1 / Fold change vs veh, LRRCC1 / RFU, ARID1A / Fold change vs veh, ARID1A / RFU, ZNF146 / Fold change vs veh, ZNF146 / RFU, ZNF330 / Fold change vs veh, ZNF330 / RFU, GPN3 / Fold change vs veh, GPN3 / RFU, C9orf123 / Fold change vs veh, C9orf123 / RFU, N4BP2L2 / Fold change vs veh, N4BP2L2 / RFU, ARFIP1 / Fold change vs veh, ARFIP1 / RFU, FAM179B / Fold change vs veh, FAM179B / RFU, BCL10 / Fold change vs veh, BCL10 / RFU, UHRF1BP1L / Fold change vs veh, UHRF1BP1L / RFU, BET1 / Fold change vs veh, BET1 / RFU, CNOT2 / Fold change vs veh, CNOT2 / RFU, ZNF268 / Fold change vs veh, ZNF268 / Fold change vs veh, ZNF507 / RFU, DGCR2 / Fold change vs veh, DGCR2 / RFU, WDSUB1 / Fold change vs veh, WDSUB1 / Fold change vs veh, HSP90B1 /// MIR3652 / RFU, ADSS / Fold change vs veh, ADSS / RFU, GK / Fold change vs veh, GK / RFU, ZNF148 / Fold change vs veh, ZNF148 / RFU, TAF9 / Fold change vs veh, TAF9 / RFU, SLC1A5 / Fold change vs veh, SLC1A5 / RFU, SLMO2 / Fold change vs veh, SLMO2 / RFU, ABCC4 / Fold change vs veh, ABCC4 / RFU, LOC101060439 /// RAP1B / Fold change vs veh, LOC101060439 /// RAP1B / RFU, RFX7 / Fold change vs veh, RFX7 / RFU, GTPBP10 / Fold change vs veh, GTPBP10 / RFU, CNEP1R1 / Fold change vs veh, CNEP1R1 / RFU, BIVM-ERCC5 /// ERCC5 / Fold change vs veh, BIVM-ERCC5 /// ERCC5 / RFU, ILF3 / Fold change vs veh, ILF3 / RFU 11762660_at / Fold change /veh 11762660_at / RFU VCAN (11757783_s_at) / Fold change /veh VCAN (11757783_s_at) / RFU DDX43 (11728927_at) / Fold change /veh DDX43 (11728927_at) / RFU KRT8 (11758188_x_at) / Fold change /veh KRT8 (11758188_x_at) / RFU NKD1 (11759106_at) / Fold change /veh NKD1 (11759106_at) / RFU SRD5A1 (11742802_a_at) / Fold change /veh SRD5A1 (11742802_a_at) / RFU TPSAB1 /// TPSB2 (11721975_s_at) / Fold change /veh TPSAB1 /// TPSB2 (11721975_s_at) / RFU GSTM3 (11746129_a_at) / Fold change /veh GSTM3 (11746129_a_at) / RFU IL23R (11737362_x_at) / Fold change /veh IL23R (11737362_x_at) / RFU TMEM51 (11727254_a_at) / Fold change /veh TMEM51 (11727254_a_at) / RFU PIWIL2 (11732686_x_at) / Fold change /veh PIWIL2 (11732686_x_at) / RFU ORM1 (11744905_x_at) / Fold change /veh ORM1 (11744905_x_at) / RFU CCDC152 (11743942_at) / Fold change /veh CCDC152 (11743942_at) / RFU ECM1 (11717891_a_at) / Fold change /veh ECM1 (11717891_a_at) / RFU IL23R (11748794_a_at) / Fold change /veh IL23R (11748794_a_at) / RFU TNFAIP8L3 (11732012_x_at) / Fold change /veh TNFAIP8L3 (11732012_x_at) / RFU MBOAT4 (11741988_at) / Fold change /veh MBOAT4 (11741988_at) / RFU 11764193_at / Fold change /veh 11764193_at / RFU TMEM53 (11763286_at) / Fold change /veh TMEM53 (11763286_at) / RFU MAGEB2 (11727129_at) / Fold change /veh MAGEB2 (11727129_at) / RFU TMEM200A (11744735_a_at) / Fold change /veh TMEM200A (11744735_a_at) / RFU CCDC152 (11751479_a_at) / Fold change /veh CCDC152 (11751479_a_at) / RFU FAM211A (11726209_a_at) / Fold change /veh FAM211A (11726209_a_at) / RFU RGS16 (11746705_a_at) / Fold change /veh RGS16 (11746705_a_at) / RFU VCAN (11755009_s_at) / Fold change /veh VCAN (11755009_s_at) / RFU RHOB (11743442_s_at) / Fold change /veh RHOB (11743442_s_at) / RFU RGS16 (11720943_a_at) / Fold change /veh RGS16 (11720943_a_at) / RFU RGS16 (11720944_at) / Fold change /veh RGS16 (11720944_at) / RFU, VPS4B / Fold change vs veh, VPS4B / RFU, CREB1 / Fold change vs veh, CREB1 / RFU, DNAJC13 / Fold change vs veh, DNAJC13 / RFU, GNAQ / Fold change vs veh, GNAQ / RFU, CDK5R1 / Fold change vs veh, CDK5R1 / RFU, ZRANB3 / Fold change vs veh, ZRANB3 / RFU, CUL4A / Fold change vs veh, CUL4A / RFU, CCNY / Fold change vs veh, CCNY / RFU, UFL1 / Fold change vs veh, UFL1 / RFU, COG3 / Fold change vs veh, COG3 / RFU, DIAPH2 / Fold change vs veh, DIAPH2 / RFU, SKA2 / Fold change vs veh, SKA2 / RFU, AFF3 / Fold change vs veh, AFF3 / RFU, LMF1 / Fold change vs veh, LMF1 / RFU, IPO11 / Fold change vs veh, IPO11 / RFU, DFFB / Fold change vs veh, DFFB / RFU, FOXP1 / Fold change vs veh, FOXP1 / RFU, CARD8 / Fold change vs veh, CARD8 / RFU, STRN3 / Fold change vs veh, STRN3 / RFU, ADK / Fold change vs veh, ADK / RFU, RASSF2 / Fold change vs veh, RASSF2 / RFU, WIPF1 / Fold change vs veh, WIPF1 / RFU, LARP1B / Fold change vs veh, LARP1B / RFU, RASA1 / Fold change vs veh, RASA1 / RFU, RB1 / Fold change vs veh, RB1 / RFU, PPFIA1 / Fold change vs veh, PPFIA1 / RFU, MAT2A / Fold change vs veh, MAT2A / RFU, CCT5 / Fold change vs veh, CCT5 / RFU, WDR92 / Fold change vs veh, WDR92 / RFU, CUX1 / Fold change vs veh, CUX1 / RFU, TTC7A / Fold change vs veh, TTC7A / RFU, TMEM135 / Fold change vs veh, TMEM135 / RFU, DEPTOR / Fold change vs veh, DEPTOR / RFU, CPM / Fold change vs veh, CPM / RFU, DNAJB6 / Fold change vs veh, DNAJB6 / RFU, CACNA2D3 / Fold change vs veh, CACNA2D3 / RFU, DTX4 / Fold change vs veh, DTX4 / RFU, TFCP2 / Fold change vs veh, TFCP2 / RFU, GMCL1 /// GMCL1P1 / Fold change vs veh, GMCL1 /// GMCL1P1 / RFU, AEBP2 / Fold change vs veh, AEBP2 / RFU, SNHG1 /// SNORD22 /// SNORD25 /// SNORD26 /// SNORD27 /// SNORD28 /// SNORD29 /// SNORD31 / Fold change vs veh, SNHG1 /// SNORD22 /// SNORD25 /// SNORD26 /// SNORD27 /// SNORD28 /// SNORD29 /// SNORD31 / Fold change (Aza/veh), C12orf56 (ProbeSet 11735607_a_at) / Fold change (ACY-1035/veh), C12orf56 (ProbeSet 11735607_a_at) / Fold change (Aza/veh), FGFR1OP (ProbeSet 11751329_s_at) / Fold change (ACY-1035/veh), FGFR1OP (ProbeSet 11751329_s_at) / Fold change (Aza/veh), VPS36 (ProbeSet 11739960_a_at) / Fold change (ACY-1035/veh), VPS36 (ProbeSet 11739960_a_at) / RFU SYPL1 (11715823_x_at) / Fold change /veh SYPL1 (11715823_x_at) / RFU IGFBP7 (11715501_s_at) / Fold change /veh IGFBP7 (11715501_s_at) / RFU REEP3 (11722064_at) / Fold change /veh REEP3 (11722064_at) / RFU IGLL1 (11728026_x_at) / Fold change /veh IGLL1 (11728026_x_at): dose or concentration left out as unconfirmed
Conditions: ProbeSet 11729173_a_at; LIST D

Nc1ncn([C@@H]2O[C@H](CO)[C@@H](O)[C@H]2O)c(=O)n1 [azacitidine]
RFU, SKA2: 326.42 RFU
